According to publication PMC12260505, “First-in-Human Phase I/IIa Study of the First-in-Class CDK2/4/6 Inhibitor PF-06873600 Alone or with Endocrine Therapy in Patients with Breast Cancer” (Clinical Cancer Research, 2025):

Assay: Adverse events graded by NCI CTCAE version 4.03, phase I/IIa study
Format: in vivo
Description: Part 1 included adult patients with HR^+/HER2^− advanced breast cancer or mBC (third- or fourth-line setting), locally recurrent/advanced or metastatic TNBC, or advanced platinum-resistant epithelial ovarian cancer/fallopian tube cancer/primary peritoneal cancer who received oral PF-06873600 at doses of 1 to 50 mg twice daily or oral PF-06873600 plus ET (letrozole or fulvestrant). Primary endpoints for part 1 dose escalation determined safety and tolerability to define dose-limiting toxicities (DLT), estimate the maximum tolerated dose, and select the recommended dose for expansion (RDE). Safety endpoints included adverse events (AE) characterized by type, frequency, severity [as graded by NCI Common Terminology Criteria for Adverse Events (CTCAE) version 4.03], timing, seriousness, and relationship to study therapy. Laboratory abnormalities were characterized by type, frequency, severity (as graded by NCI CTCAE version 4.03), timing, vital sign abnormalities, and heart rate–corrected QT interval (e.g., QTcF). Secondary endpoints included PK, preliminary antitumor activity as assessed using RECIST version 1.1, time-to-event endpoints including objective response rate (ORR), duration of response (DoR), progression-free survival (PFS), time to progression (TTP), and modulation of tumor CDK biomarkers [phosphorylated Rb (pRb), Ki67]. Exploratory endpoints included molecular profiling of tumor and ctDNA and the relationship to clinical outcome.
AEs were graded by NCI CTCAE version 4.03.

[1] = Part 2C 25 mg BID IR + Fulvestrant, N = 28
[2] = parts 1 and 2, N = 151, all cycles

In the case of C[C@@]1(O)CCC[C@H]1n1c(=O)c(C(F)F)cc2cnc(NC3CCN(S(C)(=O)=O)CC3)nc21 [PF-06873600], the “Treatment-related TEAE, Headache, Grade 3/4” value [1] is reported as 0 n (%), the “Treatment-related TEAE, Headache, Grade 5” value [1] is reported as 0 n (%) and the “Treatment-related TEAE, Headache, Total” value [1] is reported as 9 (32.1) n (%). For the same molecule, the “Treatment-related TEAE, Leukopenia, Grade 1” value [1] was 3 (10.7) n (%), the “Treatment-related TEAE, Leukopenia, Grade 2” value [1] was 3 (10.7) n (%) and the “Treatment-related TEAE, Leukopenia, Grade 3/4” value [1] was 0 n (%). The “Treatment-related TEAE, Leukopenia, Grade 5” value [1] was 0 n (%), the “Treatment-related TEAE, Leukopenia, Total” value [1] was 6 (21.4) n (%) and the “Treatment-related TEAE, Nausea, Grade 1” value [1] was 12 (42.9 ) n (%). The “Treatment-related TEAE, Nausea, Grade 2” value [1] was 7 (25.0) n (%), the “Treatment-related TEAE, Nausea, Grade 3/4” value [1] was 0 n (%) and the “Treatment-related TEAE, Nausea, Grade 5” value [1] was 0 n (%). For the same molecule, the “Treatment-related TEAE, Nausea, Total” value [1] was 19 (67.9 ) n (%), the “Treatment-related TEAE, Neutropenia, Grade 1” value [1] was 1 (3.6) n (%) and the “Treatment-related TEAE, Neutropenia, Grade 2” value [1] was 2 (7.1) n (%). For the same molecule, the “Treatment-related TEAE, Neutropenia, Grade 3/4” value [1] was 6 (21.4) n (%), the “Treatment-related TEAE, Neutropenia, Grade 5” value [1] was 0 n (%) and the “Treatment-related TEAE, Neutropenia, Total” value [1] was 9 (32.1) n (%). The “Treatment-related TEAE, Thrombocytopenia, Grade 1” value [1] was 1 (3.6) n (%), the “Treatment-related TEAE, Thrombocytopenia, Grade 2” value [1] was 0 n (%) and the “Treatment-related TEAE, Thrombocytopenia, Grade 3/4” value [1] was 1 (3.6) n (%). For the same molecule, the “Treatment-related TEAE, Thrombocytopenia, Grade 5” value [1] was 0 n (%), the “Treatment-related TEAE, Thrombocytopenia, Total” value [1] was 2 (7.1) n (%) and the “Treatment-related TEAE, Vomiting, Grade 1” value [1] was 8 (28.6) n (%). The “Treatment-related TEAE, Vomiting, Grade 2” value [1] was 4 (14.3) n (%), the “Treatment-related TEAE, Vomiting, Grade 3/4” value [1] was 0 n (%) and the “Treatment-related TEAE, Vomiting, Grade 5” value [1] was 0 n (%). The “Treatment-related TEAE, Vomiting, Total” value [1] was 12 (42.9 ) n (%), the “All-causality SAE, abdominal pain” value (parts 1 and 2, 151 patients) was 2.0% and the “All-causality SAE, colitis” value (parts 1 and 2, 151 patients) was 2.0%. For the same molecule, the “All-causality SAE, febrile neutropenia” value (parts 1 and 2, 151 patients) was 3.3%, the “All-causality SAE, hypotension” value (parts 1 and 2, 151 patients) was 2.0% and the “All-causality TEAE, alopecia” value (parts 1 and 2, 151 patients) was 28.5%. The “All-causality TEAE, anemia” value (parts 1 and 2, 151 patients) was 44.4%, the “All-causality TEAE, constipation” value (parts 1 and 2, 151 patients) was 25.2% and the “All-causality TEAE, diarrhea” value (parts 1 and 2, 151 patients) was 22.5%. For the same molecule, the “All-causality TEAE, fatigue” value (parts 1 and 2, 151 patients) was 43.7%, the “All-causality TEAE, headache” value (parts 1 and 2, 151 patients) was 29.1% and the “All-causality TEAE, leukopenia” value (parts 1 and 2, 151 patients) was 25.8%. The “All-causality TEAE, nausea” value (parts 1 and 2, 151 patients) was 62.9%, the “All-causality TEAE, neutropenia” value (parts 1 and 2, 151 patients) was 37.7% and the “All-causality TEAE, vomiting” value (parts 1 and 2, 151 patients) was 35.8%. The “All-causality TEAEs, any, patients” value (parts 1 and 2, 151 patients) was 97.4%, the “All-causality serious adverse events (SAE), patients” value (parts 1 and 2, 151 patients) was 22.5% and the “Grade 3 all-causality TEAEs, patients” value (parts 1 and 2, 151 patients) was 34.4%. The “Grade 3 and grade 4 all-causality TEAEs, patients” value (parts 1 and 2, 151 patients) was 45.7%, the “Grade 3 treatment-related TEAEs, patients” value (parts 1 and 2, 151 patients) was 25.8% and the “Grade 4 all-causality TEAEs, patients” value (parts 1 and 2, 151 patients) was 11.3%. For the same molecule, the “Grade 4 treatment-related TEAEs, patients” value (parts 1 and 2, 151 patients) was 9.9%, the “TEAE leading to dose interruptions, anemia” value (parts 1 and 2, 151 patients) was 11.3% and the “TEAE leading to dose interruptions, nausea” value (parts 1 and 2, 151 patients) was 11.3%. For the same molecule, the “TEAE leading to dose interruptions, neutropenia” value (parts 1 and 2, 151 patients) was 17.9%, the “TEAE leading to dose reductions, fatigue” value (parts 1 and 2, 151 patients) was 5.3% and the “TEAE leading to dose reductions, nausea” value (parts 1 and 2, 151 patients) was 4.6%. For the same molecule, the “TEAE leading to dose reductions, neutropenia” value (parts 1 and 2, 151 patients) was 6.0%, the “TEAEs leading to discontinuation, patients” value (parts 1 and 2, 151 patients) was 7.3% and the “TEAEs leading to dose interruptions, patients” value (parts 1 and 2, 151 patients) was 51.7%. The “TEAEs leading to dose reductions, patients” value (parts 1 and 2, 151 patients) was 21.2%, the “Treatment-related SAE, colitis” value (parts 1 and 2, 151 patients) was 1.3% and the “Treatment-related SAE, febrile neutropenia” value (parts 1 and 2, 151 patients) was 3.3%. For the same molecule, the “Treatment-related SAE, neutropenia” value (parts 1 and 2, 151 patients) was 1.3%, the “Treatment-related SAE, stomatitis” value (parts 1 and 2, 151 patients) was 1.3% and the “Treatment-related SAEs, patients” value (parts 1 and 2, 151 patients) was 8.6%. For the same molecule, the “Treatment-related TEAE, Alopecia, Grade 1” value [2] was 21 (13.9) n (%), the “Treatment-related TEAE, Alopecia, Grade 2” value [2] was 21 (13.9) n (%) and the “Treatment-related TEAE, Alopecia, Grade 3/4” value [2] was 0 n (%). The “Treatment-related TEAE, Alopecia, Grade 5” value [2] was 0 n (%), the “Treatment-related TEAE, Alopecia, Total” value [2] was 42 (27.8) n (%) and the “Treatment-related TEAE, Anemia, Grade 1” value [2] was 13 (8.6) n (%). For the same molecule, the “Treatment-related TEAE, Anemia, Grade 2” value [2] was 28 (18.5) n (%), the “Treatment-related TEAE, Anemia, Grade 3/4” value [2] was 21 (13.9) n (%) and the “Treatment-related TEAE, Anemia, Grade 5” value [2] was 0 n (%). The “Treatment-related TEAE, Anemia, Total” value [2] was 62 (41.1) n (%), the “Treatment-related TEAE, Any AE, Grade 1” value [2] was 27 (17.9) n (%) and the “Treatment-related TEAE, Any AE, Grade 2” value [2] was 55 (36.4) n (%). For the same molecule, the “Treatment-related TEAE, Any AE, Grade 3/4” value [2] was 54 (35.8) n (%), the “Treatment-related TEAE, Any AE, Grade 5” value [2] was 2 (1.3) n (%) and the “Treatment-related TEAE, Any AE, Total” value [2] was 138 (91.4) n (%). For the same molecule, the “Treatment-related TEAE, Constipation, Grade 1” value [2] was 13 (8.6) n (%), the “Treatment-related TEAE, Constipation, Grade 2” value [2] was 10 (6.6) n (%) and the “Treatment-related TEAE, Constipation, Grade 3/4” value [2] was 0 n (%). The “Treatment-related TEAE, Constipation, Grade 5” value [2] was 0 n (%), the “Treatment-related TEAE, Constipation, Total” value [2] was 23 (15.2) n (%) and the “Treatment-related TEAE, Diarrhea, Grade 1” value [2] was 21 (13.9) n (%). The “Treatment-related TEAE, Diarrhea, Grade 2” value [2] was 4 (2.6) n (%), the “Treatment-related TEAE, Diarrhea, Grade 3/4” value [2] was 2 (1.3) n (%) and the “Treatment-related TEAE, Diarrhea, Grade 5” value [2] was 0 n (%). For the same molecule, the “Treatment-related TEAE, Diarrhea, Total” value [2] was 27 (17.9) n (%), the “Treatment-related TEAE, Fatigue, Grade 1” value [2] was 23 (15.2) n (%) and the “Treatment-related TEAE, Fatigue, Grade 2” value [2] was 25 (16.6) n (%). The “Treatment-related TEAE, Fatigue, Grade 3/4” value [2] was 12 (7.9) n (%), the “Treatment-related TEAE, Fatigue, Grade 5” value [2] was 0 n (%) and the “Treatment-related TEAE, Fatigue, Total” value [2] was 60 (39.7) n (%). For the same molecule, the “Treatment-related TEAE, Headache, Grade 1” value [2] was 28 (18.5) n (%), the “Treatment-related TEAE, Headache, Grade 2” value [2] was 4 (2.6) n (%) and the “Treatment-related TEAE, Headache, Grade 3/4” value [2] was 0 n (%). For the same molecule, the “Treatment-related TEAE, Headache, Grade 5” value [2] was 0 n (%), the “Treatment-related TEAE, Headache, Total” value [2] was 32 (21.2) n (%) and the “Treatment-related TEAE, Leukopenia, Grade 1” value [2] was 5 (3.3) n (%). For the same molecule, the “Treatment-related TEAE, Leukopenia, Grade 2” value [2] was 23 (15.2) n (%), the “Treatment-related TEAE, Leukopenia, Grade 3/4” value [2] was 9 (6.0) n (%) and the “Treatment-related TEAE, Leukopenia, Grade 5” value [2] was 0 n (%). The “Treatment-related TEAE, Leukopenia, Total” value [2] was 37 (24.5) n (%), the “Treatment-related TEAE, Nausea, Grade 1” value [2] was 65 (43.0) n (%) and the “Treatment-related TEAE, Nausea, Grade 2” value [2] was 26 (17.2) n (%). The “Treatment-related TEAE, Nausea, Grade 3/4” value [2] was 1 (0.7) n (%), the “Treatment-related TEAE, Nausea, Grade 5” value [2] was 0 n (%) and the “Treatment-related TEAE, Nausea, Total” value [2] was 92 (60.9) n (%). The “Treatment-related TEAE, Neutropenia, Grade 1” value [2] was 6 (4.0) n (%), the “Treatment-related TEAE, Neutropenia, Grade 2” value [2] was 19 (12.6) n (%) and the “Treatment-related TEAE, Neutropenia, Grade 3/4” value [2] was 31 (20.5) n (%). The “Treatment-related TEAE, Neutropenia, Grade 5” value [2] was 0 n (%), the “Treatment-related TEAE, Neutropenia, Total” value [2] was 56 (37.1) n (%) and the “Treatment-related TEAE, Thrombocytopenia, Grade 1” value [2] was 16 (10.6) n (%). For the same molecule, the “Treatment-related TEAE, Thrombocytopenia, Grade 2” value [2] was 4 (2.6) n (%), the “Treatment-related TEAE, Thrombocytopenia, Grade 3/4” value [2] was 9 (6.0) n (%) and the “Treatment-related TEAE, Thrombocytopenia, Grade 5” value [2] was 0 n (%). For the same molecule, the “Treatment-related TEAE, Thrombocytopenia, Total” value [2] was 29 (19.2) n (%), the “Treatment-related TEAE, Vomiting, Grade 1” value [2] was 38 (25.2) n (%) and the “Treatment-related TEAE, Vomiting, Grade 2” value [2] was 12 (7.9) n (%). For the same molecule, the “Treatment-related TEAE, Vomiting, Grade 3/4” value [2] was 1 (0.7) n (%), the “Treatment-related TEAE, Vomiting, Grade 5” value [2] was 0 n (%) and the “Treatment-related TEAE, Vomiting, Total” value [2] was 51 (33.8) n (%).
